One assay has as its system NB4. Description: HM-27 induced cell death in AML cell line, TO-PRO-3 staining and FACS. It counts as cell-based. As for the experimental part: (§1) FIGS. 42A-42B. […] U937, HL-60 and NB4 cells were treated with varying doses of HM-27 for 24 hr and cell death was determined as described in Materials and Methods. U937 and NB4 cells (150,000) exposed to HM-27 for 24 h were collected and analyzed for Caspase 3 activity using the FITC Active Caspase-3 Apoptosis Kit (BDPharmingen) as per manufacturer's instructions. All figures are a representative of three independent experiments done in triplicates.
(§2) Cells were collected after incubation with HM-27 and analyzed for markers of cell death indicative of either apoptosis, autophagy or necrosis. BM-MNCs were isolated from marrow aspirates of AML patients and normal individuals by Ficoll-Paque centrifugation and further enriched for CD34+ cells using immunomagnetic beads. Cell death was assessed by TO-PRO-3 staining followed by FACS analysis.

The test system of another assay is U937. The assay is described as above. It counts as cell-based. As to the method: as §1, §2
The next assay concerns HL-60. Described as above. It is filed as cell-based. As to the method: as §1, §2
The test system of a further assay is H929 myeloma cells. It counts as cell-based, human. Particulars: H929 cells. In outline: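 Cells exposed to a peptide concentration series for 24 h; cell death read by Topro-3 staining and FACS. IC50 from linear regression of dose-response curves, mean of 3 independent experiments.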
In assay [1] the test system is H929 myeloma cells engrafted into the bone implant. Briefly: MM SCID-Hu in vivo model, tumor burden by circulating Kappa/paraprotein levels (ELISA). The arrangement: species or system mice. Particulars: H929, 8 mg/kg i.p. As to the method:
Briefly, 50,000 H929 myeloma cells were engrafted into the bone implant for 10 days prior to initiation of peptide treatment. Following tumor engraftment mice were randomized (0 time point) and injected with 8 mg/kg c-HYD1 or vehicle control (VC) daily (I.P. injections) for 14 days and every other day from day 14-28 at which time treatment stopped. Tumor burden was measured by circulating Kappa levels by ELISA weekly. N=10 mice for vehicle control (VC) and 9 mice for c-HYD1 treated.
FIG. 49. Cyclic HYD1 (MTI-101) was dosed daily at 8 mpk for the first week and then every other day for 4 weeks. The mice were bled weekly to measure paraprotein as a surrogate for tumor burden. […] Three of five vehicle-treated control animals had died by 35 days which contributes to the large SD.
FIGS. 61A-61C. MTI-101 inhibits tumor growth and increases survival in two independent myeloma in vivo models. […] FIG. 61A: Scid-hu model: Following tumor engraftment (2 weeks) mice were randomized (0 time point) and injected with 8 mg/kg MT101 or vehicle control (control) daily (i.p. injections) for 14 days and every other day from day 14-28 at which time treatment stopped. Tumor burden was measured by circulating paraprotein (K light chain) levels by ELISA weekly. […] Images were quantified utilizing Image J and tumor volume in the bone was quantified relative to the entire bone volume (n=5 tibias per group).
(In general: In an ELISA, binding on a coated surface is turned into a signal by an enzyme label.)

In assay [2] the test system is Caspase 3 activity and total ATP levels in AML cell lines. Briefly: Markers of cell death in AML cell lines (Caspase 3 activity, ATP levels). It is filed as cell-based. As for the experimental part: as §1
FIGS. 43A-43C. Cell death in AML cell lines by HM-27 (MTI-101) is via necrosis. Drug-treated cells (50 μM for U937 and 75 μM for HL-60) were lysed in 2% Triton X-100 in PBS with protease inhibitors (Roche) and incubated on ice for 45 min with mixing every 15 min. The supernatant (lysate) was collected after centrifugation for 20 sec at 10K rcf and 4° C. […] Twenty microliters (20 μL) of the lysate was mixed with 100 μL of the (rL/L) reagent from the kit and the luminescence was measured immediately. The luminescence was corrected by subtracting the value obtained from the blank and was checked against a standard. The luminescence was then multiplied by 50 to represent the total ATP levels from the 1.2×10^6 cells collected. […]
Cells were collected after incubation with HM-27 and analyzed for markers of cell death indicative of either apoptosis, autophagy or necrosis. […] Cell death was assessed by TO-PRO-3 staining followed by FACS analysis.

In assay [3] the test system is U937 cells co-cultured with HS-5/GFP cells. Briefly: Co-culture bone marrow stroma (HS-5/GFP) model of drug resistance (CAM-DR), annexin V and FACS. Particulars: HS-5/GFP co-culture 24 hours prior to drug. It is filed as cell-based. As for the experimental part: FIGS. 63A-63C. MTI-101 induces cell death in AML cell lines without succumbing to CAM-DR. HS-5/GFP cells were co-cultured with U937 cells for 24 hours prior to addition of 100 nM Mitoxantrone (FIG. 63A) or varying concentrations of MTI-101 (FIG. 63B). […] Cell death was measured in the GFP negative AML cells using annexin V to detect dead cells and FACS analysis. Cells cultured in suspension were used as a reference sample for drug sensitivity.

The test system of assay [4] is pPyk2, pAkt and pErk1/2 in U937 or HL-60 cells. Description: Western blot of signaling in AML cells after peptide treatment. It counts as cell-based. Particulars: U937 or HL-60, 50 μM MTI-101, western blot. As for the experimental part: FIG. 44. U937 or HL-60 cells were treated with 50 μM MTI-101 for the indicated times and pPyk2, pAkt and pErk1/2 were detected by western blot analysis.
Consistent with data obtained with the linear peptide, we show CD44 and VLA-4 are pulled down using biotin conjugated HM-27 as bait.
For orientation: A western blot detects proteins with antibodies after separation by electrophoresis.

Entries after “also recorded” stand apart in the source; their conditions may differ. *1 amine or outer side, *2 acyl side, *3 side chain or, on linkers, in order; H or OH if unused. Where a SMILES comes first, the peptide text is derived from it. Bridges are numbered along the chain shown (N, C = ends). [ ]: non-standard residue; d: D form. The star is where a group is joined. dProlinol(O-CH2CO) = O=C(COC[C@H]1CCCN1[*:1])[*:2]; N(2-Aminoethyl)Gly = O=C(CN(CCN[*:3])[*:1])[*:2]; Nle = CCCC[C@H](N)C(=O)O; Ms = CS(=O)(=O)*

For orientation: IC50 means the concentration needed to halve the response being measured. For `CCCC[C@@H]1NC(=O)CN(S(C)(=O)=O)CCNC(=O)[C@H](CCCCN)NC(=O)[C@H](CC(C)C)NC(=O)[C@H](CCCCN)NC(=O)[C@H](CC(C)C)NC(=O)[C@H](CCCCN)NC(=O)COC[C@H]2CCCN2C(=O)[C@H](Cc2c[nH]c3ccccc23)NC(=O)[C@H](C)NC(=O)[C@H](C(C)C)NC(=O)[C@H](C(C)C)NC1=O` [MTI-101] (Ms-[N(2-Aminoethyl)Gly][Nle]VVAW[dProlinol(O-CH2CO)]KLKLK; lactam 1-C), the IC50 in the assay on NB4 came out at 65 µM; in the assay on U937, 38.5 µM; in the assay with HL-60, 76.2 µM; with H929 myeloma cells (read-out: IC50), 1.2 µM. Besides, in the assay on H929 myeloma cells (reference of the 10- and 15-fold statements not expressly named), the “fold more potent than linear HYD1” value is 30 fold. Also, the figures for the “tumor growth / tumor burden” value in assay [1] and in assay [1] (listed as c-HYD1) were “significantly reduces tumor growth (p<0.05 ANOVA)” and “completely inhibits human MM tumor xenographs growth in SCID mice; also recorded: inhibits multiple myeloma engrafted tumor in the SCID-HU model”, respectively. Besides, the “ATP levels in AML cell lines” value in assay [2] is on record as “resulted in ATP depletion”. Besides, in assay [2] (24 h), the “Caspase 3 activation in AML cell lines” value is reported as “did not cause activation of Caspase 3”. Further, the “sensitivity in co-culture versus suspension” value in assay [3] is given as “not resistant in the co-culture bone marrow stroma model of drug resistance”. The “phospho-protein levels in AML cells” value in assay [4] is “increased the levels of pPyk2 and pErk1/2, but not pAKT”; in assay [4] (listed as HM-27), “induced an early activation of Erk1/2 in AML cells”.

The values are drawn from US20150071918A1, “PEPTIDES FOR THE TREATMENT OF CANCER” (H. LEE MOFFITT CANCER CENTER AND RESEARCH INSTITUTE, INC., priority 2012, published 2015).
